Test results as given in patent US4103082A, “Aminocyclitol derivatives and process for producing the same” (priority 1975, dated 1978).
Converted amounts (≈) assume the structure as drawn.

Key:
E. coli K-12 = experiment: paper disk method, inhibitory zone diameter; assay type: cell-based; settings: Escherichia coli, K12, read-out: inhibitory zone diameter
[1] = test system: Staphylococcus aureus 6538P; experiment: paper disk method, inhibitory zone diameter; assay type: cell-based; settings: read-out: inhibitory zone diameter
[2] = test system: E. coli HL-1629 (Kanamycin-resistant strain); experiment: microbe, parasite or virus in culture; assay type: cell-based; settings: Escherichia coli, read-out: inhibitory zone diameter
Klebsiella 6 = experiment: paper disk method, inhibitory zone diameter; assay type: cell-based; settings: Klebsiella, 6
Klebsiella 7 = experiment: paper disk method, inhibitory zone diameter; assay type: cell-based; settings: Klebsiella, 7
Mycobacterium 607 = experiment: paper disk method, inhibitory zone diameter; assay type: cell-based; settings: Mycobacterium, 607, read-out: inhibitory zone diameter
Pseudomonas 1007 = experiment: paper disk method, inhibitory zone diameter; assay type: cell-based; settings: Pseudomonas, 1007; 2000 γ/ml; read-out: inhibitory zone diameter
[3] = test system: Staphylococcus aureus 209P JC-1; experiment: antibacterial activity (Minimum Inhibitory Concentration); assay type: cell-based; settings: Staphylococcus aureus 209P JC-1; read-out: MIC
[4] = test system: Staphylococcus aureus Smith S-424; experiment: as above; assay type: cell-based; settings: SMITHS424; Staphylococcus aureus Smith S-424; read-out: MIC
[5] = test system: Staphylococcus aureus No. 26; experiment: as above; assay type: cell-based; settings: Staphylococcus aureus No. 26; read-out: MIC
[6] = test system: Staphylococcus aureus C73-4; experiment: as above; assay type: cell-based; settings: C734; Staphylococcus aureus C73-4; read-out: MIC
[7] = test system: Staphylococcus aureus C73-10; experiment: as above; assay type: cell-based; settings: C7310; Staphylococcus aureus C73-10; read-out: MIC
[8] = test system: Staphylococcus aureus C73-21; experiment: as above; assay type: cell-based; settings: C7321; Staphylococcus aureus C73-21; read-out: MIC
[9] = test system: Staphylococcus albus PCI-1200A; experiment: as above; assay type: cell-based; settings: PCI1200A; Staphylococcus albus PCI-1200A; read-out: MIC
[10] = test system: Bacillus subtilis ATCC 6633; experiment: as above; assay type: cell-based; settings: ATCC6633; Bacillus subtilis ATCC 6633; read-out: MIC
[11] = test system: Bacillus anthracis No. 119; experiment: microbe, parasite or virus in culture; assay type: cell-based
E. coli C73-1 = experiment: antibacterial activity (Minimum Inhibitory Concentration); assay type: cell-based; settings: Escherichia coli, C731; E. coli C73-1; read-out: MIC
E. coli C73-4 = experiment: as above; assay type: cell-based; settings: Escherichia coli, C734; E. coli C73-4; read-out: MIC
E. coli C73-12 = experiment: as above; assay type: cell-based; settings: Escherichia coli, C7312
[12] = test system: Salmonella species C73-30; experiment: as above; assay type: cell-based; settings: C7330
[13] = test system: Shigella dysenteriae Shigae; experiment: microbe, parasite or virus in culture; assay type: cell-based
Klebsiella pneumoniae = experiment: antibacterial activity (Minimum Inhibitory Concentration); assay type: cell-based; settings: read-out: MIC
Proteus morganii Kono = experiment: as above; assay type: cell-based; settings: Morganella morganii
Proteus species C73-23 = experiment: as above; assay type: cell-based; settings: Proteus species C73-23; read-out: MIC
Proteus species C73-25 = experiment: as above; assay type: cell-based; settings: Proteus species C73-25; read-out: MIC
Proteus species C73-34 = experiment: as above; assay type: cell-based; settings: Proteus species C73-34; read-out: MIC
[14] = test system: Enterococcus species C73-33; experiment: as above; assay type: cell-based; settings: C7333; Enterococcus species C73-33; read-out: MIC
[15] = test system: Enterococcus species C73-17; experiment: as above; assay type: cell-based; settings: C7317; Enterococcus species C73-17; read-out: MIC
[16] = test system: Vibrio parahaemolyticus K-3; experiment: as above; assay type: cell-based; settings: K3; Vibrio parahaemolyticus K-3; read-out: MIC
[17] = test system: Vibrio parahaemolyticus K-5; experiment: as above; assay type: cell-based; settings: K5; Vibrio parahaemolyticus K-5; read-out: MIC
[18] = test system: Vibrio parahaemolyticus K-7; experiment: as above; assay type: cell-based; settings: K7; Vibrio parahaemolyticus K-7; read-out: MIC
microorganisms indicated = experiment: antimicrobial activities, paper disk method (general statement); assay type: cell-based; settings: Tables 1 to 4
Protocol: The inhibitory activities were determined at various concentrations of the compounds using the paper disk method against the microorganisms indicated and the numerical values show the inhibitory zone diameter in terms of mm.

male ICR mice = experiment: acute toxicity; settings: intravenous administration, 200 mg/kg
[19] = 2000 γ/ml, read-out: inhibitory zone diameter

NC[C@H]1O[C@H](O[C@H]2[C@H](O)C[C@H](N)C[C@@H]2N)[C@H](N)[C@@H](O)[C@@H]1O [6-Deoxyneamine, 6-deoxyneamine]
zone of inhibition at 7.8 µg/mL (E. coli K-12; 7.8 γ/ml): 0 mm | zone of inhibition at 15.6 µg/mL (E. coli K-12; 15.6 γ/ml): 11.2 mm | zone of inhibition at 31.2 µg/mL (E. coli K-12; 31.2 γ/ml): 12.9 mm | zone of inhibition at 62.5 µg/mL (E. coli K-12; 62.5 γ/ml): 16 mm | zone of inhibition at 125 µg/mL (E. coli K-12; 125 γ/ml): 18.2 mm | zone of inhibition at 250 µg/mL (E. coli K-12; 250 γ/ml): 20.3 mm | zone of inhibition at 500 µg/mL (E. coli K-12; 500 γ/ml): 21.9 mm | zone of inhibition at 1000 µg/mL (E. coli K-12; 1000 γ/ml): 25 mm | zone of inhibition at 2000 µg/mL (E. coli K-12; 2000 γ/ml): 26.7 mm | zone of inhibition at 7.8 µg/mL ([1]; 7.8 γ/ml): 0 mm | zone of inhibition at 15.6 µg/mL ([1]; 15.6 γ/ml): 0 mm | zone of inhibition at 31.2 µg/mL ([1]; 31.2 γ/ml): 10 mm | zone of inhibition at 62.5 µg/mL ([1]; 62.5 γ/ml): 12 mm | zone of inhibition at 125 µg/mL ([1]; 125 γ/ml): 15.7 mm | zone of inhibition at 250 µg/mL ([1]; 250 γ/ml): 18.1 mm | zone of inhibition at 500 µg/mL ([1]; 500 γ/ml): 20 mm | zone of inhibition at 1000 µg/mL ([1]; 1000 γ/ml): 22.2 mm | zone of inhibition at 2000 µg/mL ([1]; 2000 γ/ml): 24.2 mm | zone of inhibition at 500 µg/mL [2]: 0 mm | zone of inhibition at 1000 µg/mL [2]: 12.5 mm | zone of inhibition at 2000 µg/mL [2]: 18 mm | zone of inhibition at 250 µg/mL (Klebsiella 6; 250 γ/ml): 0 mm | zone of inhibition at 500 µg/mL (Klebsiella 6; 500 γ/ml): 11.1 mm | zone of inhibition at 1000 µg/mL (Klebsiella 6; 1000 γ/ml): 14.1 mm | zone of inhibition at 2000 µg/mL (Klebsiella 6; [19]): 16.4 mm | zone of inhibition at 250 µg/mL (Klebsiella 7; 250 γ/ml): 0 mm | zone of inhibition at 500 µg/mL (Klebsiella 7; 500 γ/ml): 11.2 mm | zone of inhibition at 1000 µg/mL (Klebsiella 7; 1000 γ/ml): 15.6 mm | zone of inhibition at 2000 µg/mL (Klebsiella 7; [19]): 17.5 mm | zone of inhibition at 62.5 µg/mL (Mycobacterium 607; 62.5 γ/ml): 0 mm | zone of inhibition at 125 µg/mL (Mycobacterium 607; 125 γ/ml): 11 mm | zone of inhibition at 250 µg/mL (Mycobacterium 607; 250 γ/ml): 16.2 mm | zone of inhibition at 500 µg/mL (Mycobacterium 607; 500 γ/ml): 21.7 mm | zone of inhibition at 1000 µg/mL (Mycobacterium 607; 1000 γ/ml): 28.3 mm | zone of inhibition at 2000 µg/mL (Mycobacterium 607; 2000 γ/ml): 33.6 mm | zone of inhibition at 2000 µg/mL (Pseudomonas 1007): 0 mm | MIC [3]: 1.56 µg/mL (≈ 5.09 µM) | MIC [4]: 3.13 µg/mL (≈ 10.2 µM) | MIC [5]: 6.25 µg/mL (≈ 20.4 µM) | MIC [6]: 6.25 µg/mL (≈ 20.4 µM) | MIC [7]: 6.25 µg/mL (≈ 20.4 µM) | MIC [8]: 1.56 µg/mL (≈ 5.09 µM) | MIC [9]: 3.13 µg/mL (≈ 10.2 µM) | MIC [10]: 0.78 µg/mL (≈ 2.55 µM) | MIC [11]: 12.5 µg/mL (≈ 40.8 µM) | MIC (E. coli C73-1): 25 µg/mL (≈ 81.6 µM) | MIC (E. coli C73-4): 25 µg/mL (≈ 81.6 µM) | MIC (E. coli C73-12): 12.5 µg/mL (≈ 40.8 µM) | MIC [12]: 50 µg/mL (≈ 163 µM) | MIC [13]: 12.5 µg/mL (≈ 40.8 µM) | MIC (Klebsiella pneumoniae): 25 µg/mL (≈ 81.6 µM) | MIC (Proteus morganii Kono): 12.5 µg/mL (≈ 40.8 µM) | MIC (Proteus species C73-23): 25 µg/mL (≈ 81.6 µM) | MIC (Proteus species C73-25): 6.25 µg/mL (≈ 20.4 µM) | MIC (Proteus species C73-34): 25 µg/mL (≈ 81.6 µM) | MIC [14]: 25 µg/mL (≈ 81.6 µM) | MIC [15]: 50 µg/mL (≈ 163 µM) | MIC [16]: 1.56 µg/mL (≈ 5.09 µM) | MIC [17]: 25 µg/mL (≈ 81.6 µM) | MIC [18]: 25 µg/mL (≈ 81.6 µM) | antimicrobial activities relative to neamine (microorganisms indicated): superior to those of the parent compound neamine | acute toxicity, survival (male ICR mice): all male ICR mice were survived
